Like-named read-outs stand apart in the source and are kept apart here.
Legend:
[1] = target: recombinant SARS-CoV-2 Main protease (Mpro) (Severe acute respiratory syndrome coronavirus 2 (2019-nCoV) (SARS-CoV-2), UniProt P0DTD1); assay: Cov Mpro Biochemical IC50 Assay
[2] = test system: SARS-CoV-2-NLuc; assay: microbe, parasite or virus in culture; format: cell-based, SARS Coronavirus 2
[3] = recombinant SARS-CoV-2 Mpro, fluorogenic peptide substrate, read-out: MPro IC50
[4] = Severe acute respiratory syndrome coronavirus, 48 h; read-out: MPro EC50
[5] = recombinant SARS-CoV-2 Mpro 7.5 nM, fluorogenic peptide substrate 40 μM, read-out: MPro IC50
[6] = Severe acute respiratory syndrome coronavirus, 48 h, read-out: MPro EC50

## Cc1noc(C)c1-c1cc2[nH]c(=O)n(-c3cncc(C4CC4)c3)c(=O)c2s1 [Example 368]
[1]; [3]
  IC50: 411 nM
[2]; [4]
  EC50: 1920 nM

## COc1cc(-c2cc3c(s2)c(=O)n(-c2cncc(F)c2C)c(=O)n3CCC#N)c(Cl)cc1F [Example 1022, 3-[6-(2-chloro-4-fluoro-5-methoxy-phenyl)-3-(5-fluoro-4-methyl-3-pyridyl)-2,4-dioxo-thieno[3,2-d]pyrimidin-1-yl]propanenitrile]
[1]; [5]
  IC50: 7.3 nM
[2]; [4]
  EC50: 9.53 nM

## O=c1[nH]c2cc(-c3ccccc3Cl)sc2c(=O)n1-c1cncc2c1CCCC2 [Example 108]
[1]; [3]
  IC50: 9.23 nM
[2]; [6]
  EC50: 71.4 nM

## COc1cnc(C#N)c(-c2cc3c(s2)c(=O)n(-c2cncc(C)c2)c(=O)n3CCC#N)c1 [Example 887]
[1]; [5]
  IC50: 10.4 nM
[2]; [4]
  EC50: 65.4 nM

## COc1cc(-c2cc3c(s2)c(=O)n(-c2cncc4nc(C(F)(F)F)n(C)c24)c(=O)n3CCC#N)c(Cl)cc1F (single isomer, unassigned) [Example 973, 3-(6-(2-chloro-4-fluoro-5-methoxyphenyl)-3-(1-methyl-2-(trifluoromethyl)-1H-imidazo[4,5-c]pyridin-7-yl)-2,4-dioxo-3,4-dihydrothieno[3,2-d]pyrimidin-1(2H)-yl)propanenitrile]
[1]; [5]
  IC50: 6.68 nM
[2]; read-out: MPro EC50
  EC50: 14.7 nM

## COc1ccc(C#N)c(-c2cc3[nH]c(=O)n(-c4cncc5cnccc45)c(=O)c3s2)c1 [Example 583]
[1]; [5]
  IC50: 20.9 nM
[2]; [6]
  EC50: 227 nM

## N#CCCn1c(=O)n(-c2cncc3ccccc23)c(=O)c2sc(-c3cc(F)c(F)cc3Cl)cc21 [Example 826]
[1]; [5]
  IC50: 8.26 nM
[2]; [6]
  EC50: 23.9 nM

## O=c1[nH]c2cc(-c3ccccc3Cl)sc2c(=O)n1-c1cncc2ccc(N3CCC(O)(C(F)(F)F)CC3)cc12 [Example 427]
[1]; [5]
  IC50: 15.6 nM
[2]; [6]
  EC50: 24 nM

## O=c1[nH]c2cc(-c3ccccc3)ncc2c(=O)n1-c1cncc2ccccc12 [Example 164]
[1]; [3]
  IC50: 7880 nM
[2]; [6]
  EC50: 12500 nM

## COc1cc(-c2cc3c(s2)c(=O)n(-c2cncc(C)n2)c(=O)n3CCC#N)c(Cl)cc1F [Example 894]
[1]; [5]
  IC50: 3.2 nM
[2]; [6]
  EC50: 6.55 nM

## COc1cc(-c2cc3c(s2)c(=O)n(-c2cncc4c2c(C)nn4C)c(=O)n3CCC#N)c(Cl)cc1F (single isomer, unassigned) [Example 1044, 3-(6-(2-chloro-4-fluoro-5-methoxyphenyl)-3-(1,3-dimethyl-1H-pyrazolo[3,4-c]pyridin-4-yl)-2,4-dioxo-3,4-dihydrothieno[3,2-d]pyrimidin-1(2H)-yl)propanenitrile]
[1]; [5]
  IC50: 3.55 nM
[2]; read-out: MPro EC50
  EC50: 3.21 nM

## O=c1[nH]c2cc(-c3ccccc3Cl)sc2c(=O)n1-c1cncc2cccc(Cl)c12 [Example 600]
[1]; [5]
  IC50: 5.29 nM
[2]; [6]
  EC50: 18.1 nM

## COc1cc(-c2cc3c(s2)c(=O)n(-c2cncc4ccsc24)c(=O)n3CC2(C#N)CC2)c(Cl)cc1F [Example 655]
[1]; [5]
  IC50: 3.4 nM
[2]; [6]
  EC50: 3.31 nM

## COc1cc2c(=O)n(-c3cncc4ccccc34)c(=O)[nH]c2cc1-c1ccccc1Cl [Example 83]
[1]; [3]
  IC50: 109 nM
[2]; [6]
  EC50: 122 nM

## Cn1ncc2cncc(-n3c(=O)[nH]c4cc(-c5cc(F)ccc5Cl)sc4c3=O)c21 [Example 663]
[1]; [5]
  IC50: 14.4 nM
[2]; [6]
  EC50: 16.6 nM

## Cc1c(F)cncc1-n1c(=O)c2sc(-c3ccccc3C#N)cc2n(CCC#N)c1=O [Example 848]
[1]; [5]
  IC50: 34.5 nM
[2]; [4]
  EC50: 137 nM

## CS(=O)(=O)c1cccc(-c2cccc(Cl)c2-c2ccc3c(=O)n(-c4cncc5ccccc45)c(=O)[nH]c3c2)c1 [Example 269]
[1]; [3]
  IC50: 10.7 nM
[2]; [6]
  EC50: < 5.29 nM

## COc1ccc(Cl)c(-c2cc3[nH]c(=O)n(-c4cncc5ccccc45)c(=O)c3s2)c1 [Example 174, 6-(2-chloro-5-methoxyphenyl)-3-(isoquinolin-4-yl)thieno[3,2-d]pyrimidine-2,4(1H,3H)-dione]
[1]; [3]
  IC50: 6.99 nM
[2]; [6]
  EC50: 30.7 nM

## O=c1[nH]c2cc(-c3ccccc3Cl)sc2c(=O)n1-c1cncc2ccc(N3CC4(C3)CS(=O)(=O)C4)cc12 [Example 395]
[1]; [5]
  IC50: 7.25 nM
[2]; [6]
  EC50: 80.7 nM

## COc1ccc(Cl)c(-c2cc3[nH]c(=O)n(-c4cncc5ccc(N6CCOCC6)cc45)c(=O)c3s2)c1 [Example 432]
[1]; [5]
  IC50: 6.99 nM
[2]; [4]
  EC50: 6.37 nM

## COc1cc(-c2cc3[nH]c(=O)n(-c4cncc5c(F)cccc45)c(=O)c3s2)c(Cl)cc1F [Example 1081]
[1]; [5]
  IC50: 8.16 nM
[2]; [6]
  EC50: 17.9 nM

## COc1ccc(C#N)c(-c2cc3[nH]c(=O)n(-c4cncc5nc(C67CC(F)(C6)C7)n(C)c45)c(=O)c3s2)c1 [Example 437]
[1]; [5]
  IC50: 535 nM
[2]; [6]
  EC50: 10600 nM

## Cc1nocc1-c1cccc(Cl)c1-c1ccc2c(=O)n(-c3cncc4ccccc34)c(=O)[nH]c2c1 [Example 259]
[1]; [3]
  IC50: 189 nM
[2]; [6]
  EC50: 113 nM

## COc1cc(-c2cc3[nH]c(=O)n(-c4cncc5ccccc45)c(=O)c3s2)c(Cl)cn1 [Example 365]
[1]; [3]
  IC50: 100 nM
[2]; [6]
  EC50: 343 nM

## Cn1cc2ccc(-c3cc4[nH]c(=O)n(-c5cncc6ccccc56)c(=O)c4s3)cc2n1 [Example 10]
[1]; [3]
  IC50: 13700 nM
[2]; [6]
  EC50: 20000 nM

## COc1cc(-c2cc3c(s2)c(=O)n(-c2cncc4nnn(C)c24)c(=O)n3CCC#N)c(Cl)cc1F (single isomer, unassigned) [Example 1059, 3-(6-(2-chloro-4-fluoro-5-methoxyphenyl)-3-(1-methyl-1H-[1,2,3]triazolo[4,5-c]pyridin-7-yl)-2,4-dioxo-3,4-dihydrothieno[3,2-d]pyrimidin-1(2H)-yl)propanenitrile]
[1]; [5]
  IC50: 44.7 nM
[2]; read-out: MPro EC50
  EC50: 101 nM

## COc1ccc(Cl)c(-c2cc3[nH]c(=O)n(-c4cncc5sccc45)c(=O)c3s2)c1 [Example 607]
[1]; [5]
  IC50: 4.52 nM
[2]; [6]
  EC50: 4.34 nM

## COc1cc(-c2cc3[nH]c(=O)n(-c4cc(C(F)(F)F)cnn4)c(=O)c3s2)c(Cl)cc1F [Example 748]
[1]; [5]
  IC50: 50.2 nM
[2]; [4]
  EC50: 86.5 nM

## COc1ccc(Cl)c(-c2cc3[nH]c(=O)n(-c4cncc(C)c4OCC(F)(F)F)c(=O)c3s2)c1 [Example 373]
[1]; [3]
  IC50: 14.6 nM
[2]; [4]
  EC50: 46.9 nM

## Cc1ccc(-c2ccc3c(=O)n(-c4cncc5ccccc45)c(=O)[nH]c3c2)c(Cl)c1 [Example 192]
[1]; [3]
  IC50: > 50000 nM
[2]; [6]
  EC50: 3890 nM

## COc1ccc(C#N)c(-c2cc3[nH]c(=O)n(-c4cncc(C)c4OCC(F)(F)F)c(=O)c3s2)c1 [Example 225]
[1]; [3]
  IC50: 12.1 nM
[2]; [6]
  EC50: 87.7 nM

## COc1cnc(Cl)c(-c2cc3c(s2)c(=O)n(-c2cncc4cnn(C)c24)c(=O)n3CCC#N)c1 [Example 1019, 3-(6-(2-chloro-5-methoxypyridin-3-yl)-3-(1-methyl-1H-pyrazolo[4,3-c]pyridin-7-yl)-2,4-dioxo-3,4-dihydrothieno[3,2-d]pyrimidin-1(2H)-yl)propanenitrile]
[1]; [5]
  IC50: 8.48 nM
[2]; [6]
  EC50: 16.3 nM

## Cc1noc(C)c1-c1cc2c(s1)c(=O)n(-c1cncc3cnn(C)c13)c(=O)n2CCC#N [Example 930]
[1]; [5]
  IC50: 541 nM
[2]; [6]
  EC50: > 1000 nM

## O=c1[nH]c2cc(-c3c(Cl)cccc3-c3ccncc3F)ccc2c(=O)n1-c1cncc2ccccc12 [Example 332]
[1]; [3]
  IC50: 15.3 nM
[2]; [6]
  EC50: 39 nM

## COc1cc(-c2cc3c(s2)c(=O)n(-c2cncc4cnn(C)c24)c(=O)n3CC#N)c(Cl)cc1F [Example 641, 2-[6-(2-chloro-4-fluoro-5-methoxy-phenyl)-3-(1-methylpyrazolo[4,3-c]pyridin-7-yl)-2,4-dioxo-thieno[3,2-d]pyrimidin-1-yl]acetonitrile]
[1]; [5]
  IC50: 2.2 nM
[2]; [4]
  EC50: < 4.42 nM

## O=c1[nH]c2cc(-c3cc(OC(F)F)ccc3Cl)ccc2c(=O)n1-c1cncc2ccccc12 [Example 330]
[1]; [3]
  IC50: 326 nM
[2]; [6]
  EC50: 212 nM

## COc1cc(-c2cc3[nH]c(=O)n(-c4cncc5ccccc45)c(=O)c3s2)c(Cl)cc1Cl [Example 342]
[1]; [3]
  IC50: 4.49 nM
[2]; [6]
  EC50: 6.76 nM

## COCc1ccccc1-c1ccc2c(=O)n(-c3cncc4ccccc34)c(=O)[nH]c2c1 [Example 54]
[1]; [3]
  IC50: 741 nM
[2]; [6]
  EC50: 1630 nM

## COc1ccc(Cl)c(-c2cc3[nH]c(=O)n(-c4cncc5ncsc45)c(=O)c3s2)c1 [Example 485]
[1]; [5]
  IC50: 9.6 nM
[2]; [6]
  EC50: 62.6 nM

## COc1cc(-c2cc3[nH]c(=O)n(-c4cncc5c4OCCC5)c(=O)c3s2)c(Cl)cc1F [Example 1079]
[1]; [5]
  IC50: 10.3 nM
[2]; [6]
  EC50: 9.56 nM

## O=c1[nH]c2cc(-c3ccccc3C3CC3)ccc2c(=O)n1-c1cncc2ccccc12 [Example 45]
[1]; MPro IC50, recombinant SARS-CoV-2 Mpro, fluorogenic peptide substrate
  IC50: 1710 nM
[2]; [4]
  EC50: 1220 nM

## COc1cncc(-n2c(=O)[nH]c3cc(-c4ccccc4Cl)ccc3c2=O)c1C [Example 141]
[1]; [3]
  IC50: 6650 nM
[2]; [6]
  EC50: 32200 nM

## Cc1nn(C)cc1-c1cccc(Cl)c1-c1cc2[nH]c(=O)n(-c3cncc4ccccc34)c(=O)c2s1 [Example 518, 6-[2-chloro-6-(1,3-dimethylpyrazol-4-yl)phenyl]-3-(4-isoquinolyl)-1H-thieno[3,2-d]pyrimidine-2,4-dione]
[1]; [5]
  IC50: 9.15 nM
[2]; [6]
  EC50: 5.49 nM

## N#Cc1ccncc1-c1cc2[nH]c(=O)n(-c3cncc4ccccc34)c(=O)c2s1 [Example 535]
[1]; [5]
  IC50: 39.6 nM
[2]; [6]
  EC50: 432 nM

## O=c1[nH]c2cc(-c3cccc4c3CCC4)sc2c(=O)n1-c1cncc2ccccc12 [Example 168, 6-(2,3-dihydro-1H-inden-4-yl)-3-(isoquinolin-4-yl)thieno[3,2-d]pyrimidine-2,4(1H,3H)-dione]
[1]; [3]
  IC50: 615 nM
[2]; [6]
  EC50: 810 nM

## N#Cc1cccc(Cl)c1-c1ccc2c(=O)n(-c3cncc4ccccc34)c(=O)[nH]c2c1 [Example 98]
[1]; [3]
  IC50: 213 nM
[2]; [6]
  EC50: 198 nM

## N#CCn1c(=O)n(-c2cncc3ccccc23)c(=O)c2sc(-c3cc(F)ccc3Cl)cc21 [Example 728]
[1]; [5]
  IC50: 2.7 nM
[2]; [6]
  EC50: 4.34 nM

Reference: patent US20240116946A1 (Gilead Sciences, Inc., priority 2022, published 2024)
